System: 4T1 murine mammary carcinoma cells
Experiment: AlDeLuc activation in 4T1 cells, lysate bioluminescence
Type: cell-based
Conditions: 4T1 cell lysates; 100 μM, 60 minutes
Description: Validation of ALDH-Mediated Activation of AlDeLuc in Murine Breast Cancer Cells. 4T1 cells were cultured in T75 culture flasks. After two days, cells had become ˜90% confluent. An aliquot of RPMI 1640 media (1 mL) was removed from each flask and replaced with either DEAB ([…], 0.5% DMSO) or vehicle (0.5% DMSO). After incubation for one hour, the solutions were aspirated, washed with PBS, and resuspended in fresh RPMI 1640 media (9 mL). Each flask was then incubated with the AlDeLuc (100 μM) and DEAB (500 μM) or AlDeLuc (100 μM) and vehicle (DMSO), each with a final concentration of 1% DMSO. After 60 minutes, this solution was aspirated, washed with fresh PBS, and detached from the culture flasks. The cells were then transferred to a 15 mL centrifuge tube and pelleted at 1000 rpm for 5 minutes at room temp. The cells were resuspended in PBS along with 10% protease inhibitor solution (1 protease inhibitor mini tablet per 10 mL of PBS, Pierce, Thermo Fisher Scientific) and sonicated on ice for 2.5 minutes (pulse 01, 01, 40%). The cell debris was removed via centrifugation and the supernatant was plated ([…]) into a 96-well plate (n=4 for each condition). […] ROIs were drawn around each well and the signal intensity was quantified using the Living Image Analysis software.

**Q.** For `CCN(CC)c1ccc2nc(C3=N[C@@H](C(OC)OC)CS3)sc2c1` [AlDeLuc, (S)-2-(4-(dimethoxymethyl)-4,5-dihydrothiazol-2-yl)-N,N-diethylbenzo[d]thiazol-6-amine], which “increase in bioluminescence compared to blank controls” value is on record?
**A.** The value was 42 fold.

From patent US20250282770A1, “BIOLUMINESCENT PROBES TO TRACK STEM CELLS IN VIVO” (THE BOARD OF TRUSTEES OF THE UNIVERSITY OF ILLINOIS, priority 2024, published 2025)
